Experimental data taken from publication PMC7997411, “Discovery and Optimization of Selective Inhibitors of Meprin α (Part II)” (Pharmaceuticals, 2021).

Assays:
[1] = target: T1, ADAM10 (Homo sapiens, UniProt O14672); assay: ADAM10 assay; assay type: biochemical
T1 construct: purchased R&D Systems 936-AD
T1 sequence (O14672 214-748): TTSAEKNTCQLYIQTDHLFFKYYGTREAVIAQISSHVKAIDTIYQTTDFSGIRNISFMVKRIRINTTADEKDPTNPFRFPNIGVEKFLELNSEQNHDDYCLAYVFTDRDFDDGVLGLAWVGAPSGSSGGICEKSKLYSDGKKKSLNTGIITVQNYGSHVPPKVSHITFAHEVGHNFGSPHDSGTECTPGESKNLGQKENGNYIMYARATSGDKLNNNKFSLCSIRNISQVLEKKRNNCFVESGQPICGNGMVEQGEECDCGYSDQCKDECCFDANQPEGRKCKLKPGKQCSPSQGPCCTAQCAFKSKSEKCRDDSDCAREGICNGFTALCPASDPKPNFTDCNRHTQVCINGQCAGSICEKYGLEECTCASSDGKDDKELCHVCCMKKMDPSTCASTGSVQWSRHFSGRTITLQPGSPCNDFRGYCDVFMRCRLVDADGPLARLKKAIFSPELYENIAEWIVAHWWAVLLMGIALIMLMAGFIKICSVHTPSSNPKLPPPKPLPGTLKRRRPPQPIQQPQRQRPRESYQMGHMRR
Protocol: All common chemicals were purchased from Sigma.
Both assays followed the same general protocol. […] After 30 min incubation at RT, the reactions were started by addition of 2.5 µL of 2× solutions of substrate (R&D Systems cat#: ES010, Mca-KPLGL-Dpa-AR-NH2, 20 µM). […] All compounds were tested in 10-point, 1:3 serial dilutions dose-response format starting with highest concentration of 100 µM. IC50 values were determined using non-linear regression analysis using the GraphPad Prism 8.0 suite of programs.

[2] = target: T2, meprin α (Homo sapiens, UniProt Q16819); assay: Kinetic parameters of meprin α mediated proteolysis in the presence of SR24717; assay type: biochemical
T2 construct: Strep-tag; made in house; host or cells: BTI-TN-5B1-4 insect cells (baculovirus, amplified in Sf9)
T2 sequence (Q16819 66-746): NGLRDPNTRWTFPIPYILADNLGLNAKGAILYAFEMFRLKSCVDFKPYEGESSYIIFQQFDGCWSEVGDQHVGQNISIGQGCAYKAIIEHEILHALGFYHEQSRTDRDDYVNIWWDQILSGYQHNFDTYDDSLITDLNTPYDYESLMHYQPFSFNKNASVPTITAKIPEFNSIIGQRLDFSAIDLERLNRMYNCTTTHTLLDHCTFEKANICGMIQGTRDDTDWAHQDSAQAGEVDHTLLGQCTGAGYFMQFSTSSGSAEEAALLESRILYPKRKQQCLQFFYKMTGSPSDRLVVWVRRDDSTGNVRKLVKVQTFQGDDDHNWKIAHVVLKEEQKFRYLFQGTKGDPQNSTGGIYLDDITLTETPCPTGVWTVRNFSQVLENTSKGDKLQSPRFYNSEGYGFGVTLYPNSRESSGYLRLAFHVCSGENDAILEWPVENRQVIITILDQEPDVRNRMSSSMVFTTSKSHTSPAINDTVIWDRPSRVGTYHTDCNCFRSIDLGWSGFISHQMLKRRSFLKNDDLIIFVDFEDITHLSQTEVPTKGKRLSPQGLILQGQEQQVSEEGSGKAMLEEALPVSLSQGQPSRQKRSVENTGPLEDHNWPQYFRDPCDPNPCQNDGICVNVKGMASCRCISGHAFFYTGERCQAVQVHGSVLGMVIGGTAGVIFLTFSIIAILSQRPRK
Protocol: Substrate stock solutions were prepared at various concentrations in HTS assay buffer (50 mM HEPES, 0.01% Brij-35, pH 7.5). Assays were conducted by incubating a range of substrate (2–50 µM) and SR24717 concentrations (0–1000 nM) with 1.3 nM meprin α at 25 °C. Fluorescence was measured on a multimode microplate reader Synergy H1 (Biotek Instruments, Winooski, VT, USA) using λexcitation = 324 nm and λemission = 393 nm. Rates of hydrolysis were obtained from plots of fluorescence versus time, using data points from only the linear portion of the hydrolysis curve. The slope from these plots was divided by the fluorescence change corresponding to complete hydrolysis and then multiplied by the substrate concentration to obtain rates of hydrolysis in units of μM/s. Kinetic parameters were calculated by non-linear regression analysis using the GraphPad Prism 8.0 suite of programs.

[3] = tested on: WM266-4 (skin melanoma), HEK293 (kidney), and BJ (skin fibroblasts) cells; assay: Cell viability, CellTiter Glo assay after 72 h treatment; assay type: cell-based
Protocol: Figure 6 Characterization of SR24717 for effects on cell viability and cytotoxicity. (A) Effect of SR24717 on viability of WM266-4 (skin melanoma), HEK293 (kidney), and BJ (skin fibroblasts) cells. CellTiter Glo™ assay (Promega) was used after 72 h treatment. (B) Effect of SR24717 on viability of HEK293 (kidney) and BJ (skin fibroblasts) cells. The CellTox Green™ assay (Promega) was used. All experiments performed as 10-point 3-fold concentration-response curves in triplicate.
Test compounds were solubilized in 100% DMSO and added to polypropylene 384-well plates (Greiner cat# 781280). 1250 of BJ skin fibroblasts or primary melanocytes were plated in 384-well plates in 8 µL of serum-free media (HybriCare for BT474, EMEM for HEK293). […] Luminescence was recorded using a Biotek Synergy H1 multimode microplate reader. Viability was expressed as a percentage relative to wells containing media only (0%) and wells containing cells treated with DMSO only (100%). Three parameters were calculated on a per-plate basis: (a) the signal-to-background ratio (S/B), (b) the coefficient for variation (CV; CV = (standard deviation/mean) × 100) for all compound test wells, and (c) the Z’-factor. IC50 values were calculated by fitting normalized data to sigmoidal log vs. response equation utilizing non-linear regression analysis from GraphPad Prism 8.

[4] = target: T2, meprin α; assay: Meprin α assay in a 384-well plate (fluorogenic substrate Mca-YVADAPK-K(Dnp)); assay type: biochemical; details: pre-incubation with meprin α for 0–3 h

COc1cc(OC)nc(SCc2nnc(SCC(=O)NO)n2-c2ccc(N(C)C)cc2)n1 [SR24717]
IC50 [1]: > 100 µM | Ki ([2]; global fit to the competitive model of inhibition): 301 nM | mode of inhibition of meprin α ([2]; varying substrate concentration): competitive | concentration at which negative effects on viability were observed [3]: 100 µM | time dependence of inhibition: change in IC50 values [4]: no change in IC50 values
